Experimental data reported in the METLIN SMRT retention time set (Domingo-Almenara et al. 2019).

Assay: gradient 5% acetonitrile 3 min, to 50% in 2 min, to 85% in 15 min, held 3 min, 100 µL/min
Details: column: Zorbax Extend-C18 2.1 x 50 mm; eluents: water / acetonitrile, 0.1% formic acid
Method in brief: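 A Zorbax Extend-C18 column (2.1 × 50 mm, 1.8 μm) run at 100 μL/min with water and acetonitrile, both containing 0.1% formic acid, separated mixtures of ~100 pure standards. The HPLC was coupled to a quadrupole time-of-flight mass spectrometer operated in positive and negative ionization mode, with dead and dwell volumes of 40 μL and 900 μL. Each retention time was taken from a computationally picked adduct peak that was then manually inspected.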

Row | SMILES | RP-LC retention time
1 | CCCn1ccc2oc(C)c(C(=O)NC(C)c3ccc(F)cc3)c2c1=O (stereo not drawn) | 1040 s
2 | CCS(=O)(=O)N1C[C@@H](COC)[C@H](C(N)=O)C1 | 560 s
3 | O=C(Nc1ccc(F)cc1F)c1c(O)c2cccnc2n(-c2ccccc2)c1=O | 1250 s
4 | O=C1C(c2cccnc2)N(CC2CCCCC2)C(=O)CN1c1ccccc1 (stereo not drawn) | 771 s
5 | CCc1nnc(NC(=O)c2c[nH]c3c(Cl)cccc3c2=O)s1 | 693 s
6 | Cc1nnc2ccc(-c3noc(Cc4ccccc4Cl)n3)cn12 | 852 s
7 | COCCCNc1c(-c2ccc(C)cc2)nc2sc(C(N)=O)c(C)n12 | 705 s
8 | O=C(Nc1c(F)cccc1F)N1CCc2nc(-c3ccc(F)cc3)ncc2C1 | 932 s
9 | CC(C)CNC(=O)c1n[nH]c2c1CCCCCC2 | 850 s
10 | O=C(Cn1nc2c3cc(-c4ccccc4)nn3ccn2c1=O)Nc1cccc(Br)c1 | 952 s
11 | CCN(CC)c1ccc(-c2noc(CN3CCc4ccccc4C3)n2)cn1 | 718 s
12 | CCCCNC(=O)C1CCCN(c2nnc(C)c3c(C)n(-c4ccc(C)cc4)nc23)C1 (stereo not drawn) | 733 s
13 | COc1ccc2[nH]c(=O)c(CCC(=O)NCc3cccs3)cc2c1 | 805 s
14 | CN1C(=O)C2(CCN(C(=O)c3cccc(Cl)c3)C2)c2ccccc21 (stereo not drawn) | 811 s
15 | O=C(NCc1ccccc1)c1ccc(-c2cccs2)nc1 | 884 s
16 | O=C(Cn1nc2c(cc1=O)CCCCC2)NCCc1nc(-c2ccccc2)cs1 | 843 s
17 | Cc1ccc(-c2cc(C(N)=O)c3ccccc3n2)cc1 | 784 s
18 | CC(=O)Oc1cccc(C2C3=C(CC(C)(C)CC3=O)Nc3ccccc3N2C(C)=O)c1 (stereo not drawn) | 735 s
19 | COc1cccc(-c2noc(C3CCCN3C(=O)Nc3ccccc3C)n2)c1 (stereo not drawn) | 877 s
20 | CC(C)c1noc(C2CCCN(S(=O)(=O)c3cccs3)CCC(=O)NCC2)n1 (stereo not drawn) | 787 s
21 | O=C(CSc1nccn1Cc1ccc(Cl)cc1)NCCc1ccccc1 | 644 s
22 | Cc1cc(NC(=O)CCn2cnc3ccccc3c2=O)sn1 | 619 s
23 | Cn1c(N2CCCC(C(=O)NCc3cccc(F)c3)C2)cc(=O)n(C)c1=O (stereo not drawn) | 676 s

Row | SMILES | RP-LC retention time
24 | O=C1COc2ccc(S(=O)(=O)N3CCC(C(=O)N4CCN(c5ccccc5)CC4)CC3)cc2N1 | 766 s
25 | O=C(NCC1(CO)CC1)NC(c1ccccc1)c1ccccc1 | 706 s
26 | Cc1cc(N2CCN(C)CC2)nc2ccc(NC(=O)C3CCC(C(C)(C)C)CC3)cc12 (stereo not drawn) | 675 s
27 | CCN(CC)CCOc1ccc(Nc2ncc3cc(-c4c(Cl)cccc4Cl)c(=O)n(C)c3n2)cc1 | 783 s
28 | Cn1cc(CC(=O)N2CCN(c3ncccn3)CC2)c2ccccc21 | 720 s
29 | CN(Cc1ccccc1)C(=O)CN1C(=O)C(C(=O)N2CCCCCC2)Sc2ccccc21 (stereo not drawn) | 945 s
30 | C=CCN1C(=O)COc2ccc(-c3nc(NC(=O)C(C)C)sc3C)cc21 | 922 s
31 | COc1ccc(CNC(=O)C2CCCN(c3ncnc4c3nc3n4CCCCC3)C2)cc1 (stereo not drawn) | 732 s
32 | COC(=O)c1cccc(C(=O)Nc2ccc(C)c(Cl)c2)n1 | 991 s
33 | CC(C(=O)NCCCN1CCN(C)CC1)n1c(=O)c(C(F)(F)F)nc2ccccc21 (stereo not drawn) | 603 s
34 | O=C(Cn1cccc1-c1nc(-c2ccc3c(c2)OCO3)no1)N1CCN(c2ccccc2)CC1 | 1070 s
35 | COc1cccc(NC(=O)Nc2cc(-c3cn4cccnc4n3)ccc2OC)c1 | 654 s
36 | COc1ccc(N2CCN(c3cc(SCC(=O)NCCC(C)C)ncn3)CC2)cc1 | 873 s
37 | COc1ccc2c(c1)C1(CCN(S(=O)(=O)c3ccc(F)c(C)c3)C1)C(=O)N2C (stereo not drawn) | 973 s
38 | O=C(c1cccs1)N1CCC2(CC1)N=C(c1ccc(Cl)cc1)NO2 | 844 s
39 | O=C(NC(Cc1c[nH]c2ccccc12)C(=O)O)c1ccc(Cl)cc1 (stereo not drawn) | 724 s
40 | O=C(CC1CCN(C(=O)C2CCCCC2)CC1)NCCc1c[nH]c2ccc(Cl)cc12 | 871 s
41 | COc1cc(NC(=O)Cn2nc3cc(-c4ccccc4)nc(C)n3c2=O)cc(OC)c1 | 736 s
42 | O=C(Cc1cn2cc(F)ccc2n1)Nc1ccc(Cl)cc1Cl | 666 s
43 | Cc1ccc(-c2noc(Cn3c(=O)n(-c4ccc(F)cc4)c(=O)c4sccc43)n2)cc1C | 1080 s
44 | OC[C@@H]1CN(Cc2ccc3[nH]ccc3c2)C[C@H]1c1ccccn1 | 580 s
45 | CCCn1cc(CCNC(=O)Nc2ccccc2Cl)c2cccnc21 | 812 s
46 | O=C(NCc1cccc2ccccc12)C(=O)c1c[nH]c2ccccc12 | 1010 s

Row | SMILES | RP-LC retention time
47 | O=C1c2cccc3cccc(c23)C(=O)N1CC(=O)N1CCCc2ccccc21 | 593 s
48 | O=C(Nc1ccccn1)C1CCN(C(=O)C2Sc3ccccc3NC2=O)CC1 (stereo not drawn) | 622 s
49 | CCOc1cc2c(cc1OCC)C(c1ccc(OC)c(OC)c1OC)CC(=O)N2 (stereo not drawn) | 836 s
50 | CCc1ccc(N2C(=O)C3N=NN(Cc4nc(-c5ccc(Br)cc5)no4)C3C2=O)cc1 (stereo not drawn) | 1130 s
51 | Cc1cccc(C)c1NC(=O)Cn1nc2n(c1=O)CCCCC2 | 684 s
52 | CCOc1ccc(-c2nnc(SCC(=O)N3CCCC3)o2)cc1 | 757 s
53 | CCCCNc1nc(-c2ccccc2F)nc2ccccc12 | 730 s
54 | C1CCC(C(CC2CCCCN2)C2CCCCC2)CC1 (stereo not drawn) | 1060 s
55 | COc1ccc(OC)c(NC(=O)Cn2nc(N3CCC(C)CC3)c3ccccc3c2=O)c1 | 1180 s
56 | CCOCC1CCC2(CCN(S(=O)(=O)c3ccc(C)c(F)c3)CC2)O1 (stereo not drawn) | 1090 s
57 | O=C(Cc1cccc(F)c1)Nc1cc(-c2ccccn2)no1 | 800 s
58 | CC(C)n1cnc(S(=O)(=O)N2CCC(C(=O)Nc3cccc(-c4ccno4)c3)CC2)c1 | 753 s
59 | COc1ccccc1N1CCN(C(=O)C2CCCN(c3ncnc4c3nc3n4CCCCC3)C2)CC1 (stereo not drawn) | 766 s
60 | CCN1C(=O)COc2ccc(-c3noc(-c4ccc(F)cc4)n3)cc21 | 1130 s
61 | CCN(CC)c1nc(C(=O)N2CCN(C3CCN(C)CC3)CC2)nc2nc(C)cc(C)c12 | 540 s
62 | CCCCS(=O)(=O)N1CCC(c2cc(N)on2)CC1 | 706 s
63 | CCCn1c(=O)sc2cc(S(=O)(=O)N3CCC(C(=O)Nc4ccccc4OC)CC3)ccc21 | 1000 s
64 | Cn1cc(-c2cc3n(n2)CCC(=O)N3CC(=O)NCCCN2CCCCC2)c2ccccc21 | 616 s
65 | CCn1ccc2cc(S(=O)(=O)N3CCCC(C(=O)NCCCN(C)Cc4ccccc4)C3)ccc21 (stereo not drawn) | 715 s
66 | Cc1c(CN2CCSCC2)nnn1-c1ccccc1 | 583 s
67 | Cc1ccc(C(=O)Nc2cc(-c3cccnc3)no2)cc1 | 764 s
68 | COCC1CN(Cc2ccc(OC(F)(F)F)cc2)CC12CCNCC2 (stereo not drawn) | 579 s
